Experimental data taken from article PMC6857582, “Characterization of aminopeptidase encoding gene anp-1 and its association with development in Caenorhabditis elegans” (PeerJ, 2019).

Tests used:
[1] = target: T1, rANP-1 (AlaNyl aminopeptidase 1) (Caenorhabditis elegans, UniProt Q22317); assay: p-nitroanilide release, absorbance at […] nm; type: biochemical; conditions: refolded fragment
T1 construct: gene anp-1
T1 sequence (Q22317 93-559): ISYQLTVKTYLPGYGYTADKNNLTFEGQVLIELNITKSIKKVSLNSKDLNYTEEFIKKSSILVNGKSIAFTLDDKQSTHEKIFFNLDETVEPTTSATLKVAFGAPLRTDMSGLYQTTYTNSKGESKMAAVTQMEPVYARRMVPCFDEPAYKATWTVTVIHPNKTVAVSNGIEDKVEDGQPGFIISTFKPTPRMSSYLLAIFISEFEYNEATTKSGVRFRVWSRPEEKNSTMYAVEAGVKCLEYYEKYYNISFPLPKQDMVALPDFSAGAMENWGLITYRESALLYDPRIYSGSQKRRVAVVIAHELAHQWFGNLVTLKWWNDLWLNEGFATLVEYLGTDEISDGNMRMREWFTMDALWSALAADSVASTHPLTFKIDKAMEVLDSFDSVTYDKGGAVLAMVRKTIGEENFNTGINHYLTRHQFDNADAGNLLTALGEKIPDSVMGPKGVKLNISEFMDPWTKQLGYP

[2] = target: T1, rANP-1 (AlaNyl aminopeptidase 1); assay: L-Leu-pNA hydrolysis, absorbance at […] nm; type: biochemical; conditions: inhibitor concentration not given; pre-incubation with inhibitor; substrate L-Leu-pNA; refolded fragment

% reduction of activity [2] | Compound | p-nitroanilide release, absorbance at 405 nm [1]
 | CC(C)C[C@H](N)C(=O)Nc1ccc([N+](=O)[O-])cc1 [L-leucine-p-nitroanilide] | Aminopeptidase activity of rANP-1 protein was measured using L-Leu-pNA as substrate
~ 55% | CC(C)C[C@@H](N)[C@H](O)C(=O)N[C@H](C(=O)N[C@H](C(=O)N[C@@H](CC(=O)O)C(=O)O)C(C)C)C(C)C [amastatin] | 
~ 46% | CC(C)C[C@H](NC(=O)[C@@H](O)[C@H](N)Cc1ccccc1)C(=O)O [bestatin] | 
